Experimental data from patent US8791267B2, “Biaryl PDE4 inhibitors for treating inflammatory, cardiovascular and CNS disorders” (Decode Genetics EHF, priority 2007, dated 2014).
Counter-ions that a name gives are not always drawn. Like-named read-outs stand apart in the source and are kept apart here.

Assays:
PDE4 = PDE4 (Homo sapiens, UniProt Q08499); test: In-vitro assay for PDE4 enzymes, real-time enzyme-coupled spectrophotometric assay (Table 9); type: biochemical
PDE4B = PDE4B (Homo sapiens, UniProt Q07343); test: In-vitro assay for PDE4 enzymes, real-time enzyme-coupled spectrophotometric assay, PDE4B Activity (Table 10); type: biochemical
Chain of PDE4B (Q07343 whole entry): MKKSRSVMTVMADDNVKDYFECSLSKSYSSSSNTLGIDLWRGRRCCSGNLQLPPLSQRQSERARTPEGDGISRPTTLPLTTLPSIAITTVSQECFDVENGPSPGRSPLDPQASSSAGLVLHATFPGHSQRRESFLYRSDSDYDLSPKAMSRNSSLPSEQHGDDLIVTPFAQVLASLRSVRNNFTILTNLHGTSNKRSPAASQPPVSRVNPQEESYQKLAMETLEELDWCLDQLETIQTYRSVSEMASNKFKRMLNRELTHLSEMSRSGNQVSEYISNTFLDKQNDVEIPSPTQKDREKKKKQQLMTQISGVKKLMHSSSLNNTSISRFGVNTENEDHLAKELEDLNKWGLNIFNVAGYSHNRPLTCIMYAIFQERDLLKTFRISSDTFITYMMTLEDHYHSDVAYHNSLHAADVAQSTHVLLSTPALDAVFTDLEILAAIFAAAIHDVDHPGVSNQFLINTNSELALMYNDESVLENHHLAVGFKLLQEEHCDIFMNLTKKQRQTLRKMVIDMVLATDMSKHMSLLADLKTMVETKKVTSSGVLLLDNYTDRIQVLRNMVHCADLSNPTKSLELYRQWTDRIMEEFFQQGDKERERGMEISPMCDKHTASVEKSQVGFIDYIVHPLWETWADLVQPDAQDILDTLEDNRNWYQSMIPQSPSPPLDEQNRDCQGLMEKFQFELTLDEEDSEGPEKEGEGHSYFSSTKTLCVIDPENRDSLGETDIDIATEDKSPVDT

[1] = human PDE4D, activity class, Table 9, read-out: hPDE4D
[2] = human PDE4B (hPDE4B), enzyme-coupled spectrophotometric assay, read-out: PDE4B Activity, hPDE4B

Chain of PDE4 (Q08499 whole entry): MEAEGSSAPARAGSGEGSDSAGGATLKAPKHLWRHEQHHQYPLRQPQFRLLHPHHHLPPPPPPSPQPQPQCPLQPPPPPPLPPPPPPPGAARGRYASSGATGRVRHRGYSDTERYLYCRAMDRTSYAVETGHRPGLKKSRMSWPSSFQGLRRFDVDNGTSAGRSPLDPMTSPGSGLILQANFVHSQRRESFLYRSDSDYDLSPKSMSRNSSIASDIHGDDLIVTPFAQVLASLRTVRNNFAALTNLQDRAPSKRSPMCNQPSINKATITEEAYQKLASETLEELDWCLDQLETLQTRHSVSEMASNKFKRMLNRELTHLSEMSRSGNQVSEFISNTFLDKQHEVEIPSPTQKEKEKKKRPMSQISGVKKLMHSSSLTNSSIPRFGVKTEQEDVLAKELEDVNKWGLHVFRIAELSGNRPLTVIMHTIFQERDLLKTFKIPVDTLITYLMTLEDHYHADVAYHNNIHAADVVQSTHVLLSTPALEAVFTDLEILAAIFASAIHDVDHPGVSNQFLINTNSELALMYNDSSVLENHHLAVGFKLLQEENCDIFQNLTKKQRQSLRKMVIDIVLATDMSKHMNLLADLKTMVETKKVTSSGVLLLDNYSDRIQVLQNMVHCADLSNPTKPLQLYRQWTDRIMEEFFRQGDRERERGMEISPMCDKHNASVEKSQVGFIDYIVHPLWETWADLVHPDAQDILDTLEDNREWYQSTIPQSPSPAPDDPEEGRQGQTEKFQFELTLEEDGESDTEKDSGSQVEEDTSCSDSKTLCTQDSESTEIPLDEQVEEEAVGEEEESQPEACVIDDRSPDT

Row | Compound | IC50 (PDE4; [1]) [µM] | IC50 (PDE4B; [2]) [µM] | IC50 (PDE4) [µM] | IC50 (PDE4B) [µM]
1 | COc1ccc(Cn2cc(C#N)ccc2=O)cc1-c1cccc([N+](=O)[O-])c1 [P-195, 1-(6-Methoxy-3′-nitro-biphenyl-3-ylmethyl)-6-oxo-1,6-dihydro-pyridine-3-carbonitrile] | 5 to 20 | 21 to 40 | – | –
2 | COc1ccc(COC2=CC(=O)CC2)cc1-c1cccc(C(F)(F)F)c1 [P-091, 3-(6-Methoxy-3′-trifluoromethyl-biphenyl-3-ylmethoxy)-cyclopent-2-enone] | < 5 | 21 to 40 | – | –
3 | CCNC(=O)NCc1ccc(Cc2ccc(OC)c(-c3cccc(Cl)c3)c2F)cn1 [P-372, 1-[5-(3′-Chloro-2-fluoro-6-methoxy-biphenyl-3-ylmethyl)-pyridin-2-ylmethyl]-3-ethyl-urea] | < 5 | < 5 | – | –
4 | COc1ccc(Cc2ccc(NC(=O)CN)cc2)cc1-c1cccc([N+](=O)[O-])c1 [P-145] | < 5 | < 5 | – | –
5 | COc1ccc(Cc2ccc(NC(=O)CCN)cc2)cc1-c1cccc([N+](=O)[O-])c1 [P-159] | < 5 | < 5 | – | –
6 | COc1ccc(Cc2ccc(CNC(N)=O)c(F)c2)c(F)c1-c1cccc(Cl)c1 [P-287] | < 5 | < 5 | – | –
7 | COc1ccc(Cc2ccc(CN)nc2)cc1-c1cccc(Cl)c1 [P-591, C-[5-(3′-chloro-6-methoxy-biphenyl-3-ylmethyl)-pyridin-2-yl]-methylamine hydrochloride] | < 5 | < 5 | – | –
8 | COc1ccc(Cc2ccc(C#N)c(F)c2)c(F)c1-c1cccc(Cl)c1 [P-274] | < 5 | < 5 | – | –
9 | COc1ccc(Cc2ccc(NC(N)=O)cc2)c(F)c1-c1cccc(C#N)c1 [P-413] | < 5 | < 5 | – | –
10 | COc1ccc(Cc2nnc(NC(N)=O)s2)c(F)c1-c1cccc(Cl)c1 [P-352, [5-(3′-Chloro-2-fluoro-6-methoxy-biphenyl-3-ylmethyl)-[1,3,4]thiadiazol-2-yl]-urea] | < 5 | < 5 | – | –
11 | COc1ccc(Cc2ccc(F)cc2)c(F)c1-c1cccc([N+](=O)[O-])c1 [P-050] | < 5 | < 5 | – | –
12 | COc1ccc(Cc2ccc(C(=O)N(C)C)nc2)c(F)c1-c1cccc(Cl)c1 [P-382, 5-(3′-Chloro-2-fluoro-6-methoxy-biphenyl-3-ylmethyl)-pyridine-2-carboxylic acid dimethylamide] | < 5 | < 5 | – | –
13 | COc1ccc(Cn2cncn2)nc1-c1cccc([N+](=O)[O-])c1 [P-024, 3-methoxy-2-(3-nitro-phenyl)-6-[1,2,4]triazol-1-ylmethyl-pyridine] | < 5 | 21 to 40 | – | –
14 | COc1ccc(Cn2cnc(-c3cccnc3)c2)c(F)c1-c1cccc(Cl)c1 [P-479, 3-[1-(3′-Chloro-2-fluoro-6-methoxy-biphenyl-3-ylmethyl)-1H-imidazol-4-yl]-pyridine] | < 5 | 5 to 20 | – | –
15 | COc1ccc(Cc2cnc(Cl)nc2)c(F)c1-c1cccc(Cl)c1 [P-392] | < 5 | < 5 | – | –
16 | COc1ccc(Cc2ccc(N3CCC[C@H]3C(N)=O)nc2)c(F)c1-c1cccc(Cl)c1 [P-612, (S)-1-[5-(3′-chloro-2-fluoro-6-methoxy-biphenyl-3-ylmethyl)-pyridin-2-yl]-pyrrolidine-2-carboxylic acid amide] | < 5 | < 5 | – | –
17 | COc1ccc(Cc2ccc(CNC(C)=O)c(F)c2)c(F)c1-c1cccc(Cl)c1 [P-300] | < 5 | < 5 | – | –
18 | COc1ccc(Cn2cc(NC(N)=O)ccc2=O)cc1-c1cccc([N+](=O)[O-])c1 [P-208, [1-(6-Methoxy-3′-nitro-biphenyl-3-ylmethyl)-6-oxo-1,6-dihydro-pyridin-3-yl]-urea] | 5 to 20 | 5 to 20 | – | –
19 | CCN1CCN(Cc2ccc(Cc3ccc(OC)c(-c4cccc(Cl)c4)c3F)cn2)C1=O [P-461, 1-[5-(3′-Chloro-2-fluoro-6-methoxy-biphenyl-3-ylmethyl)-pyridin-2-ylmethyl]-3-ethyl-imidazolidin-2-one hydrochloride] | < 5 | < 5 | – | –
20 | COc1ccc(Cc2ccc(S(N)(=O)=O)cc2)cc1-c1cccc(Cl)c1 [P-266, 4-(3′-Chloro-6-methoxy-biphenyl-3-ylmethyl)-benzenesulfonamide] | < 5 | < 5 | – | –
21 | COc1ccc(Cc2ccc(=O)[nH]n2)cc1-c1ccc2nonc2c1 [P-012, 6-(3-Benzo[1,2,5]oxadiazol-5-yl-4-methoxy-benzyl)-2H-pyridazin-3-one] | 5 to 20 | 5 to 20 | – | –
22 | COc1ccc(Cc2cnc(NS(C)(=O)=O)nc2)c(F)c1-c1cccc(C(C)=O)c1 [P-284, N-[5-(3′-Acetyl-2-fluoro-6-methoxy-biphenyl-3-ylmethyl)-pyrimidin-2-yl]-methanesulfonamide] | < 5 | < 5 | – | –
23 | COc1ccc(Cc2ccc(C#N)nc2)cc1-c1cccc(Cl)c1 [P-590, 5-(3′-chloro-6-methoxy-biphenyl-3-ylmethyl)-pyridine-2-carbonitrile] | < 5 | < 5 | – | –

Row | Compound | IC50 (PDE4; [1]) [µM] | IC50 (PDE4B; [2]) [µM] | IC50 (PDE4) [µM] | IC50 (PDE4B) [µM]
24 | COc1ccc(Cc2ccncc2)c(O)c1-c1cccc([N+](=O)[O-])c1 [P-017, 6-methoxy-3′-nitro-3-pyridin-4-ylmethyl-biphenyl-2-ol] | < 5 | < 5 | – | –
25 | CCNC(=O)Nc1ccc(Cc2ccc(OC)c(-c3cccc(Cl)c3)c2F)c[n+]1[O-] [P-397, 1-[5-(3′-Chloro-2-fluoro-6-methoxy-biphenyl-3-ylmethyl)-1-oxy-pyridin-2-yl]-3-ethyl-urea] | < 5 | < 5 | – | –
26 | COc1ccc(CN2C(=O)CC[C@H]2CO)cc1-c1cccc([N+](=O)[O-])c1 [P-131, (S)-5-Hydroxymethyl-1-(6-methoxy-3′-nitro-biphenyl-3-ylmethyl)-pyrrolidin-2-one] | 5 to 20 | 5 to 20 | – | –
27 | COc1ccc(Cc2cnc(N)s2)c(F)c1-c1cccc(Cl)c1 [P-369, 5-(3′-Chloro-2-fluoro-6-methoxy-biphenyl-3-ylmethyl)-thiazol-2-ylamine] | < 5 | < 5 | – | –
28 | COc1ccc(Cn2cnc(CO)c2)cc1-c1cccc([N+](=O)[O-])c1 [P-154, [1-(6-Methoxy-3′-nitro-biphenyl-3-ylmethyl)-1H-imidazol-4-yl]-methanol] | < 5 | < 5 | – | –
29 | COc1ccc(COc2ccc(N)cc2)c(F)c1-c1cccc(Br)c1 [P-199] | < 5 | < 5 | – | –
30 | COc1ccc(Cn2ccc3ccccc32)cc1-c1cccc([N+](=O)[O-])c1 [P-010, 1-(6-Methoxy-3′-nitro-biphenyl-3-ylmethyl)-1H-indole] | < 5 | < 5 | – | –
31 | COc1ccc(Cc2cnc(N(C)CCO)nc2)c(F)c1-c1cccc(Cl)c1 [P-458, 2-{[5-(3′-Chloro-2-fluoro-6-methoxy-biphenyl-3-ylmethyl)-pyrimidin-2-yl]-methyl-amino}-ethanol] | < 5 | < 5 | – | –
32 | COc1ccc(Oc2ccc(N)nc2)c(F)c1-c1cccc(C#N)c1 [P-439, 5-(3′-Cyano-2-fluoro-6-methoxy-biphenyl-3-yloxy)-pyridin-2-yl-ammonium chloride] | < 5 | < 5 | – | –
33 | COc1ccc(Cc2cccc(OC(N)=O)c2)c(F)c1-c1cccc(Cl)c1 [P-222] | – | – | < 5 | < 5
34 | COC(=O)c1cccc(-c2cc(Cc3ccc(F)cc3)ccc2OC)c1 [P-002] | < 5 | < 5 | – | –
35 | COc1ccc([C@](C)(O)c2ccc(NC(C)=O)cc2)c(F)c1-c1cccc(Cl)c1 (single isomer, unassigned) [P-560] | 5 to 20 | 5 to 20 | – | –
36 | COc1ccc(Cc2ccc(N3CCN(C)C3=O)nc2)c(F)c1-c1cccc(Cl)c1 [P-470, 1-[5-(3′-Chloro-2-fluoro-6-methoxy-biphenyl-3-ylmethyl)-pyridin-2-yl]-3-methyl-imidazolidin-2-one] | < 5 | < 5 | – | –
37 | COc1ccc(Cn2ccnc2-c2cccnc2)c(F)c1-c1cccc(Cl)c1 [P-549, 3-[1-(3′-Chloro-2-fluoro-6-methoxy-biphenyl-3-ylmethyl)-1H-imidazol-2-yl]-pyridine hydrochloride salt] | < 5 | 5 to 20 | – | –
38 | COc1ccc(C(C)(O)c2ccc(NC(N)=O)cc2)c(F)c1-c1cccc(Cl)c1 (stereo not drawn) [P-441, {4-[1-(3′-chloro-2-fluoro-6-methoxy-biphenyl-3-yl)-1-hydroxy-ethyl]-phenyl}-urea] | < 5 | 5 to 20 | – | –
39 | COc1ccc(Cc2cccc(NC(N)=O)c2)cc1-c1cccc(Cl)c1 [P-270, [3-(3′-Chloro-6-methoxy-biphenyl-3-ylmethyl)-phenyl]-urea] | < 5 | 5 to 20 | – | –
40 | COc1ccc(Cc2ccnc(N3CCNCC3)c2)c(F)c1-c1cccc(Cl)c1 [P-515, 1-[4-(3′-Chloro-2-fluoro-6-methoxy-biphenyl-3-ylmethyl)-pyridin-2-yl]-piperazine] | < 5 | < 5 | – | –
41 | NC(=O)Nc1ccc(Cc2ccc(O)c(-c3cccc(Cl)c3)c2F)cc1 [P-468, [4-(3′-Chloro-2-fluoro-6-hydroxy-biphenyl-3-ylmethyl)-phenyl]-urea] | < 5 | < 5 | – | –
42 | COc1ccc(Cc2ccc(CNC(=O)C(N)=O)nc2)c(F)c1-c1cccc(Cl)c1 [P-521, N-[5-(3′-Chloro-2-fluoro-6-methoxy-biphenyl-3-ylmethyl)-pyridin-2-ylmethyl]-oxalamide] | < 5 | < 5 | – | –
43 | COc1ccc(Cn2ccc(C(N)=O)cc2=O)cc1-c1cccc([N+](=O)[O-])c1 [P-207, 1-(6-Methoxy-3′-nitro-biphenyl-3-ylmethyl)-2-oxo-1,2-dihydro-pyridine-4-carboxylic acid amide] | 5 to 20 | < 5 | – | –
44 | COc1ccc(Cc2ccc(F)cc2)c(O)c1-c1cccc([N+](=O)[O-])c1 [P-099, 3-(4-Fluoro-benzyl)-6-methoxy-3′-nitro-biphenyl-2-ol] | < 5 | < 5 | – | –
45 | COc1ccc(Cc2ccc(NC(C)=O)nc2)c(F)c1-c1cccc(Cl)c1 [P-387] | < 5 | < 5 | – | –
